Laboratory results reported in patent US8546451B2 (priority 2005, dated 2013).
Marks after values point to notes of the source that are not given here.

What was measured:
[1] = test system: testosterone, prostate specific antigen (PSA), prostate volume and weight; test: 39-week oral pharmacology and toxicology study in male cynomolgus monkey (13-week interim); conditions: for reduction of prostate volume: six weeks; for reduction of mean prostate weights: thirteen weeks
[2] = biological target: PPAR-γ (Homo sapiens (Human), UniProt P37231); test: Cross-reactivity transcriptional activation assay, PPAR-γ; format: cell-based; conditions: agonist and antagonist modes
Sequence of PPAR-γ (P37231 whole entry, canonical isoform): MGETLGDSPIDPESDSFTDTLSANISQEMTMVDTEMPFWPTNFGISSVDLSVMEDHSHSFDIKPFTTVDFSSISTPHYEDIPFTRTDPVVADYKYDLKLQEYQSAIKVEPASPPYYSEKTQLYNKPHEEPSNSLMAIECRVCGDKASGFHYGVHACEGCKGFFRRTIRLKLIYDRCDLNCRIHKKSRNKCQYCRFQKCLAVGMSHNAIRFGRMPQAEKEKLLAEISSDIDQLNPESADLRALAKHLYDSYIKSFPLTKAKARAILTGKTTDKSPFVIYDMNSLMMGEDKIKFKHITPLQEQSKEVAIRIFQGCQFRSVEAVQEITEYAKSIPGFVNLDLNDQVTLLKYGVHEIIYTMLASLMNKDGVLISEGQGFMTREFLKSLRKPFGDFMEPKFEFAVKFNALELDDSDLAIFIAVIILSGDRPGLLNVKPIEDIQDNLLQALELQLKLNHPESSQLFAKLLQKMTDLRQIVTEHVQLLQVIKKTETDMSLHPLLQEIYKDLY
From the text: Compound IV was screened for cross-reactivity against rat isoforms of glucocorticoid receptor (GR), mineralocorticoids receptor (MR), progesterone receptor (PR), androgen receptor (AR) and human isoforms of farnesoid X receptor (FXR), liver X receptor (LXR), peroxisome proliferator-activated receptors (PPAR-α and PPAR-γ), and retinoid X receptor (RXR-α) in both agonist and antagonist modes in transcriptional activation assays.

[3] = Day 3, 100 mg/kg/day oral, Estimated final concentrations
[4] = Day 3, 100 mg/kg/day oral, Quantifiable concentrations only
[5] = Day 7, 1 mg/kg/day oral, Estimated final concentrations
[6] = Day 7, 1 mg/kg/day oral, Quantifiable concentrations only
[7] = Day 7, 10 mg/kg/day oral, Estimated final concentrations
[8] = Day 7, 10 mg/kg/day oral, Quantifiable concentrations only
[9] = Day 7, 100 mg/kg/day oral, Estimated final concentrations
[10] = Day 7, 100 mg/kg/day oral, Quantifiable concentrations only
[11] = Day 14, 1 mg/kg/day oral, Estimated final concentrations
[12] = Day 14, 1 mg/kg/day oral, Quantifiable concentrations only
[13] = Day 14, 10 mg/kg/day oral, Estimated final concentrations
[14] = Day 14, 10 mg/kg/day oral, Quantifiable concentrations only
[15] = Day 14, 100 mg/kg/day oral, Estimated final concentrations
[16] = Day 14, 100 mg/kg/day oral, Quantifiable concentrations only
[17] = Day 28, 1 mg/kg/day oral, Estimated final concentrations
[18] = Day 28, 1 mg/kg/day oral, Quantifiable concentrations only
[19] = Day 28, 10 mg/kg/day oral, Estimated final concentrations
[20] = Day 28, 10 mg/kg/day oral, Quantifiable concentrations only
[21] = Day 28, 100 mg/kg/day oral, Estimated final concentrations
[22] = Day 28, 100 mg/kg/day oral, Quantifiable concentrations only
[23] = Day 64, 1 mg/kg/day oral, Estimated final concentrations
[24] = Day 64, 1 mg/kg/day oral, Quantifiable concentrations only
[25] = Day 64, 10 mg/kg/day oral, Estimated final concentrations
[26] = Day 64, 10 mg/kg/day oral, Quantifiable concentrations only
[27] = Day 64, 100 mg/kg/day oral, Estimated final concentrations
[28] = Day 64, 100 mg/kg/day oral, Quantifiable concentrations only
[29] = Day 90, 1 mg/kg/day oral, Estimated final concentrations
[30] = Day 90, 1 mg/kg/day oral, Quantifiable concentrations only
[31] = Day 90, 10 mg/kg/day oral, Estimated final concentrations
[32] = Day 90, 10 mg/kg/day oral, Quantifiable concentrations only
[33] = Day 90, 100 mg/kg/day oral, Estimated final concentrations
[34] = Day 90, 100 mg/kg/day oral, Quantifiable concentrations only

O=C(c1ccc(O)c(F)c1)N(c1ccc(O)cc1)c1ccc(F)cc1 [Compound IV, 3-fluoro-N-(4-fluorophenyl)-4-hydroxy-N-(4-hydroxyphenyl)benzamide]
suppression of serum testosterone relative to the baseline value ([1]; Day 3, 100 mg/kg/day oral): 60%
Mean serum testosterone level [1, 3]: 1.8* ng/mL
Percentage change of mean serum testosterone levels compared to baseline [1, 3]: −60%
Mean serum testosterone level [1, 4]: 1.8 ng/mL
Percentage change of mean testosterone levels compared to baseline [1, 4]: −60%
Mean serum testosterone level [1, 5]: 6.7 ng/mL
Percentage change of mean serum testosterone levels compared to baseline [1, 5]: −8.1%
Mean serum testosterone level [1, 6]: 6.7 ng/mL
Percentage change of mean testosterone levels compared to baseline [1, 6]: −8.1%
Mean serum testosterone level [1, 7]: 7.7 ng/mL
Percentage change of mean serum testosterone levels compared to baseline [1, 7]: 57%
Mean serum testosterone level [1, 8]: 7.7 ng/mL
Percentage change of mean testosterone levels compared to baseline [1, 8]: 57%
suppression of serum testosterone relative to the baseline value ([1]; Day 7, 100 mg/kg/day oral): 51%
Mean serum testosterone level [1, 9]: 2.2* ng/mL
Percentage change of mean serum testosterone levels compared to baseline [1, 9]: −51%
Mean serum testosterone level [1, 10]: 2.2 ng/mL
Percentage change of mean testosterone levels compared to baseline [1, 10]: −51%
Mean serum testosterone level [1, 11]: 3.8 ng/mL
Percentage change of mean serum testosterone levels compared to baseline [1, 11]: −48%
Mean serum testosterone level [1, 12]: 3.8 ng/mL
Percentage change of mean testosterone levels compared to baseline [1, 12]: −48%
Mean serum testosterone level [1, 13]: 7.1 ng/mL
Percentage change of mean serum testosterone levels compared to baseline [1, 13]: 45%
Mean serum testosterone level [1, 14]: 7.1 ng/mL
Percentage change of mean testosterone levels compared to baseline [1, 14]: 45%
suppression of serum testosterone relative to the baseline value ([1]; Day 14, 100 mg/kg/day oral): 42%
Mean serum testosterone level [1, 15]: 2.6 ng/mL
Percentage change of mean serum testosterone levels compared to baseline [1, 15]: −42%
Mean serum testosterone level [1, 16]: 2.6 ng/mL
Percentage change of mean testosterone levels compared to baseline [1, 16]: −42%
Mean serum testosterone level [1, 17]: 4.7 ng/mL
Percentage change of mean serum testosterone levels compared to baseline [1, 17]: −35%
Mean serum testosterone level [1, 18]: 4.7 ng/mL
Percentage change of mean testosterone levels compared to baseline [1, 18]: −35%
Mean serum testosterone level [1, 19]: 9.4 ng/mL
Percentage change of mean serum testosterone levels compared to baseline [1, 19]: 92%
Mean serum testosterone level [1, 20]: 9.4 ng/mL
Percentage change of mean testosterone levels compared to baseline [1, 20]: 92%
suppression of serum testosterone relative to the baseline value ([1]; Day 28, 100 mg/kg/day oral): 79%
Mean serum testosterone level [1, 21]: 0.9* ng/mL
Percentage change of mean serum testosterone levels compared to baseline [1, 21]: −79%
Mean serum testosterone level [1, 22]: 0.9 ng/mL
Percentage change of mean testosterone levels compared to baseline [1, 22]: −79%
Mean serum testosterone level [1, 23]: 4.3 ng/mL
Percentage change of mean serum testosterone levels compared to baseline [1, 23]: −41%
Mean serum testosterone level [1, 24]: 4.3 ng/mL
Percentage change of mean testosterone levels compared to baseline [1, 24]: −41%
Mean serum testosterone level [1, 25]: 5.4 ng/mL
Percentage change of mean serum testosterone levels compared to baseline [1, 25]: 11%
Mean serum testosterone level [1, 26]: 5.4 ng/mL
Percentage change of mean testosterone levels compared to baseline [1, 26]: 11%
suppression of serum testosterone relative to the baseline value ([1]; Day 64, 100 mg/kg/day oral): 92%
Mean serum testosterone level [1, 27]: 0.3* ng/mL
Percentage change of mean serum testosterone levels compared to baseline [1, 27]: −92%
Mean serum testosterone level [1, 28]: 0.3 ng/mL
Percentage change of mean testosterone levels compared to baseline [1, 28]: −92%
Mean serum testosterone level [1, 29]: 4.2 ng/mL
Percentage change of mean serum testosterone levels compared to baseline [1, 29]: −42%
Mean serum testosterone level [1, 30]: 4.2 ng/mL
Percentage change of mean testosterone levels compared to baseline [1, 30]: −42%
Mean serum testosterone level [1, 31]: 4.6 ng/mL
Percentage change of mean serum testosterone levels compared to baseline [1, 31]: −5.5%
Mean serum testosterone level [1, 32]: 4.6 ng/mL
Percentage change of mean testosterone levels compared to baseline [1, 32]: −5.5%
Mean serum testosterone level [1, 33]: 0.2* ng/mL
Percentage change of mean serum testosterone levels compared to baseline [1, 33]: −96%
suppression of serum testosterone relative to the baseline value [1, 33]: 96%
Mean serum testosterone level [1, 34]: 0.2 ng/mL
Percentage change of mean testosterone levels compared to baseline [1, 34]: −95%
monkeys with testosterone below the limit of quantification ([1]; after 90 days, 100 mg/kg/day oral, LLOQ 0.246 ng/mL): 6 of 10
testosterone flare ([1]; any dose up to 100 mg/kg/day): not observed
effects on platelet aggregation, prothrombin time (PT) or activated partial thromboplastin time (APTT) ([1]; cynomolgus monkey, in vivo): No apparent effects
reduction of prostate volume ([1]; 10 mg/kg): 25%
reduction of prostate volume ([1]; 100 mg/kg): 45%
reduction of mean prostate weights ([1]; 10 mg/kg/day): 24%
reduction of mean prostate weights ([1]; 100 mg/kg/day): 21%
agonist or antagonist activity [2]: did not display any agonist or antagonist activity
